Measured values reported in patent EP0182152B1, “Antitumor antibiotics (LL-E33288 Complex)” (AMERICAN CYANAMID COMPANY, priority 1984, dated 1986).

What was measured:
Format in all cases: in vivo, BDF1 mice
[1] = test system: lymphocytic leukemia P388; assay: Lymphocytic Leukemia P388 Test; conditions: Table IX
Source text: (§1) Certain in vivo testing systems and protocols have been developed by the National Cancer Institute for testing compounds to determine their suitability as anti-neoplastic agents. These have been reported in "Cancer Chemotherapy Reports", Part III, Vol. 3, No. 2 (1972), Geran, et al. These protocols have established standardized screening tests which are generally followed in the field of testing for antitumor agents. Of these systems, lymphocytic leukemia P388, melanotic melanoma B16, L1210 leukemia and colon 26 adenocarcinoma are particularly significant to the present invention. These neoplasms are utilized for testing as transplantable tumors in mice. Generally, significant anti-tumor activity, shown in these protocols by a percentage increase of mean survival times of the treated animals (T) over the control animals (C), is indicative of similar results in human leukemias and solid tumors.
The animals used were BDF1 mice, all of one sex, weighing a minimum of 17 g and all within a 3 g weight range. There were 5 or 6 mice per test group. The tumor transplant was by intraperitoneal injection of 0.5 ml of dilute ascitic fluid containing 10^6 cells of lymphocytic leukemia P388. LL-E33288 antibiotics were tested in the P388 system both as the individual β1-Br and […] components and as a complex of all components (Bromo-complex). The test compounds were administered intrapertioneally at a volume of 0.5 ml in 0.2% Klucel in normal saline on days 1, 5 and 9 (relative to tumor inoculation) at the indicated doses. The mice were weighed and the survivors recorded on a regular basis for 30 days. The median survival time and the ratio of survival time for treated (T)/control (C) animals were calculated. The positive control compound was Cisplatin given as an intraperitioneal injection in 0.5 ml of 0.2% Klucel on days 1, 5 and 9 at the indicated doses.
If T/C X 100 (%) is 125 or over, the tested compound is considered to have significant anti-tumor activity.
(§2) In the same manner, the following iodo-components were tested for antineoplastic activity.

[2] = test system: lymphocytic leukemia L1210; assay: Lymphocytic Leukemia L1210 Test
Source text: as §1
The animals used were BDF1 mice, all of one sex, weighing a minimum of 17 g and all within a 3 g weight range. There were 6 mice in each test group and 18 in control groups. The tumor transplant was by intraperitoneal injection of 0.5 ml of lymphocytic leukemia L1210 at a concentration of 10^5 cells per mouse. LL-E33288 antibiotics were tested in the L1210 system both as the individual β1-Br component and as a complex of all components (Bromo-complex). The test compounds were administered on days 1, 5 and 9 or days 1 through 9 (relative to tumor inoculation) at various doses. The mice were weighed and survivors recorded on a regular basis for 30 days. The median survival time and the ratio of survival time for treated (T)/control (C) animals were calculated. The positive control compound was 1,4-dihydroxy-5,8-bis[[2-(2-hydroxyethylamino)ethyl]amino]anthraquinone dihydrochloride or Cisplatin given intraperitoneally at the indicated dose. If T/C X 100 (%) is 125 or over, the tested compound is considered to have significant anti-tumor activity.
as §2

melanotic melanoma B16 = assay: Melanotic Melanoma B16 Test
Source text: as §1
The animals used were BDF1 mice, all of the same sex, weighing a minimum of 17 g and all within a 3 g weight range. There are normally 6 animals per test group. A 1 g portion of melanotic melanoma β16 tumor was homogenized in 10 ml of cold balanced salt solution and a 0.5 ml aliquot of the homogenate was implanted intraperitoneally into each of the test mice. LL-E33288 antibiotics were tested in the β16 system both as the individual β1-Br and γ1-Br components and as a complex of all components (Bromo-complex). The test compounds were administered intraperitioneally on days 1 through 9 (relative to tumor inoculation) at various doses. The mice were weighed and survivors recorded on a regular basis for 60 days. The median survival time and the ratio of survival time for treated (T)/control (C) animals were calculated. The positive control compounds were Cisplatin or Adriamycin. The results of this test appear in Table V. If T/C X 100 (%) is 125 or over, the tested compound is considered to have significant anti-tumor activity.
as §2

[3] = Test 1, dose 1.6 mg/kg, control 13 days
[4] = Test 2, dose 0.8 mg/kg, control 11 days
[5] = Test 2, dose 1.6 mg/kg, control 11 days
[6] = Table VI, days 1, 5 and 9 or days 1 through 9, dose 0.4 mg/kg, control 16.7 days
[7] = Table VI, days 1, 5 and 9 or days 1 through 9, dose 0.8 mg/kg, control 16.7 days
[8] = Table VI, i.p., dose 1.6 mg/kg, control 16.7 days
[9] = Table XI, dose 0.4 mg/kg, control 9 days
[10] = Table XI, dose 0.8 mg/kg, control 9 days
[11] = Table XI, dose 1.6 mg/kg, control 9 days
[12] = Table XI, dose 3.2 mg/kg, control 9 days
[13] = Table V, dose 0.4 mg/kg, control 19 days, survivors recorded for 60 days
[14] = Table V, dose 0.8 mg/kg, control 19 days, survivors recorded for 60 days
[15] = Table X, dose 0.2 mg/kg, control value not given
[16] = Table X, dose 0.4 mg/kg, control value not given
[17] = Table X, dose 0.8 mg/kg, control value not given

Cl.Cl.O=C1c2c(O)ccc(O)c2C(=O)c2c(NCCNCCO)ccc(NCCNCCO)c21 [Novantrone®, 1,4-dihydroxy-5,8-bis[[2-(2-hydroxyethylamino)ethyl]amino]anthraquinone dihydrochloride]
Median Survival [1, 3]: 22.5 days
T/C x 100 [1, 3]: 173%
Median Survival [1, 4]: 16 days
T/C x 100 [1, 4]: 145%
Median Survival [1, 5]: 19 days
T/C x 100 [1, 5]: 173%
Median Survival [2, 6]: 30 days
T/C x 100 [2, 6]: 180%
Median Survival [2, 7]: 30 days
T/C x 100 [2, 7]: 180%
Median Survival [2, 8]: 30 days
T/C x 100 [2, 8]: 180%
Median Survival [2, 9]: 11 days
T/C x 100 [2, 9]: 122%
Median Survival [2, 10]: 12 days
T/C x 100 [2, 10]: 133%
Median Survival [2, 11]: 11.5 days
T/C x 100 [2, 11]: 128%
Median Survival [2, 12]: 15 days
T/C x 100 [2, 12]: 167%

COc1cccc2c1C(=O)c1c(O)c3c(c(O)c1C2=O)C[C@@](O)(C(=O)CO)C[C@@H]3O[C@H]1C[C@H](N)[C@H](O)[C@H](C)O1 [Adriamycin]
Median Survival (melanotic melanoma B16; [13]): > 60 days
T/C x 100 (melanotic melanoma B16; [13]): > 316%
Median Survival (melanotic melanoma B16; [14]): > 60 days
T/C x 100 (melanotic melanoma B16; [14]): > 316%
Median Survival (melanotic melanoma B16; [15]): 34.5 days
T/C x 100 (melanotic melanoma B16; [15]): 203%
Median Survival (melanotic melanoma B16; [16]): 40 days
T/C x 100 (melanotic melanoma B16; [16]): 235%
Median Survival (melanotic melanoma B16; [17]): 48 days
T/C x 100 (melanotic melanoma B16; [17]): 282%
